Biological target: CB1 (mutant) (Homo sapiens, UniProt P21554)
Assay: R-SAT functional receptor assay, CB1 (mutant, truncated after amino acid 417)
Format: cell-based
Conditions: Appendix A; R-SAT CB1; receptor form (mutant or wild-type) not stated; read-out: pIC50 (converted)

Chain of CB1 (mutant) (P21554 1-417, change not shown): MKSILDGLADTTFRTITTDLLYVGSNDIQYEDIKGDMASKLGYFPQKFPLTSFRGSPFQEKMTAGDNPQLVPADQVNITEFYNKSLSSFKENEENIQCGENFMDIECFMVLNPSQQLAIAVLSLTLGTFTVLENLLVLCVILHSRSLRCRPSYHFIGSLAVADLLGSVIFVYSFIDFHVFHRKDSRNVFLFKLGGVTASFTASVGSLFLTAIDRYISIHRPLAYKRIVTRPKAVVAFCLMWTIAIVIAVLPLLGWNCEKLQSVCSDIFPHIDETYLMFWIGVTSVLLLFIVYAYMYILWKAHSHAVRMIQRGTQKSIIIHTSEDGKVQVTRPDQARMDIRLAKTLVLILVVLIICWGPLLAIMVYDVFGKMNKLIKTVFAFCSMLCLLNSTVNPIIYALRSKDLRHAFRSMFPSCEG

Row | SMILES | IC50
1 | O=C(Cc1ccccc1)NNC(=O)c1ccc2c(c1)N=C(N1CCCCC1)c1ccccc1S2 | 200 nM
2 | CC(C)CNC(=O)c1ccc2c(c1)N=C(c1ccc(Cl)s1)c1ccc(F)cc1S2 [drawing 703] | 7.94 nM
3 | CCCCNC(=O)c1ccc2c(c1)N=C(CCC)c1ccccc1S2 | 25.1 nM
4 | CCCCNC(=O)c1ccc2c(n1)N=C(c1ccccc1)c1ccccc1S2 | 12.6 nM
5 | CCCC1=Nc2cc(C(=O)NCc3ccccc3Cl)ccc2Sc2ccccc21 [drawing 791] | 10 nM
6 | CCCC1=Nc2cc(C(=O)NC(C)C34CC5CC(CC(C5)C3)C4)ccc2Sc2ccccc21 (stereo not shown) | 79.4 nM
7 | O=C(NN1CCOCC1)c1ccc2c(c1)N=C(c1cccc(F)c1)c1ccccc1S2 | 200 nM
8 | CC(C)CNC(=O)c1ccc2c(c1)N=C(c1cccc(Cl)c1)c1ccccc1S2 [drawing 609] | 3.98 nM
9 | CCCC1=Nc2cc(C(=O)NCCN3CCCC3)ccc2Sc2ccccc21 | 3160 nM
10 | CCCC1=Nc2cc(C(=O)NCCN(CC)CC)ccc2Sc2ccccc21 | 1580 nM

More lines, now with the values ahead:

Row | IC50 | SMILES
11 | 31.6 nM | O=C(NCc1ccccc1Cl)c1ccc2c(c1)N=C(C1CCCCC1)c1ccccc1S2 [drawing 1059]
12 | 15.8 nM | Cc1cccc(C2=Nc3cc(C(=O)NC4CCC(F)(F)CC4)ccc3Sc3ccccc32)n1 [drawing 869]
13 | 6.31 nM | O=C(NCCC(F)(F)F)c1ccc2c(c1)N=C(c1ccc(Cl)cc1F)c1ccccc1S2 [drawing 667]
14 | 251 nM | Cc1cc(Cl)ccc1C1=Nc2cc(C(=O)NC3CCCCC3)ccc2Sc2ccccc21
15 | 316 nM | O=C(NCCc1ccncc1)c1ccc2c(c1)N=C(c1ccccc1Cl)c1ccccc1S2
16 | 158 nM | COc1ccccc1C1=Nc2cc(C(=O)NCC(C)C)ccc2Sc2ccccc21
17 | 20 nM | CCCNC(=O)c1ccc2c(c1)N=C(c1ccc(Cl)cc1)c1ccccc1S2 [drawing 969]
18 | 50.1 nM | COc1ccc(C2=Nc3cc(C(=O)NNC(=O)Cc4ccccc4)ccc3Sc3ccccc32)cc1
19 | 7.94 nM | CC(C)CNC(=O)c1ccc2c(c1)N=C(c1ccc(F)cn1)c1ccccc1S2 [drawing 711]
20 | 6.31 nM | Cc1csc(CNC(=O)c2ccc3c(c2)N=C(c2sccc2C)c2ccccc2S3)c1 [drawing 661]
21 | 15.8 nM | O=C(NCCc1ccccn1)c1ccc2c(c1)N=C(c1cccc(Cl)c1)c1ccccc1S2 [drawing 905]
22 | 10 nM | Cc1ccc(CNC(=O)c2ccc3c(c2)N=C(c2ccsc2)c2ccccc2S3)o1 [drawing 803]
23 | 501 nM | O=C(NCc1ccncc1)c1ccc2c(c1)N=C(N1CCCCC1)c1ccccc1S2
24 | 2.51 nM | O=C(NCCCC(F)(F)F)c1ccc2c(c1)N=C(c1ccc(Cl)s1)c1ccccc1S2 [drawing 559]
25 | 5.01 nM | CC(C)CNC(=O)c1ccc2c(c1)N=C(c1cccc(F)c1)c1ccccc1S2 [drawing 629]
26 | 20 nM | O=C(NCCc1cccc(Cl)c1)c1ccc2c(c1)N=C(N1CCCCC1)c1ccccc1S2 [drawing 973]
27 | 25.1 nM | CC(C)CNC(=O)c1ccc2c(c1)N=C(c1ccccn1)c1ccccc1S2 [drawing 1021]
28 | 15.8 nM | O=C(NCc1ccccn1)c1ccc2c(c1)N=C(c1cccc(Br)c1)c1ccccc1S2 [drawing 891]
29 | 12.6 nM | O=C(NC1CCC(F)(F)CC1)c1ccc2c(c1)N=C(c1ccc(F)cc1)c1ccccc1S2 [drawing 821]

Same assay, conditions: Appendix A; R-SAT CB1; receptor form not stated; relative to SR141716 (100%)

Row | % Inhibition | SMILES
30 | 105% | CCCNC(=O)c1ccc2c(c1)N=C(c1ccc(Cl)cc1)c1ccccc1S2 [drawing 969]

Same assay, conditions: Appendix A; R-SAT CB1; receptor form not stated; relative to SR141716 (100%); read-out: % Inhibition

Row | SMILES | Emax
31 | O=C(NCCc1ccc(Cl)cc1)c1ccc2c(c1)N=C(c1ccccc1F)c1ccccc1S2 [drawing 1085] | 101%
32 | CCCCNC(=O)c1cc2c(cc1C)Sc1ccccc1C(c1ccc(Cl)cc1)=N2 [drawing 630] | 94%
33 | O=C(c1ccc2c(c1)N=C(c1ccc(Cl)cc1)c1ccccc1S2)N1CCCCC1 | 95%
34 | O=C(Cc1ccccc1)NNC(=O)c1ccc2c(c1)N=C(N1CCCCC1)c1ccccc1S2 | 69%
35 | O=C(c1ccc2c(c1)N=C(C1CCCCC1)c1ccccc1S2)N1CCCCC1 | 26%
36 | CC(C)CNC(=O)c1ccc2c(c1)N=C(c1ccc(Cl)s1)c1ccc(F)cc1S2 [drawing 703] | 117%
37 | CCCCNC(=O)c1ccc2c(c1)N=C(CCC)c1ccccc1S2 | 111%
38 | O=C(NCc1cccc(Cl)c1)c1ccc2c(c1)N=C(N1CCCCC1)c1ccccc1S2(=O)=O [drawing 939] | 91%
39 | CCCCNC(=O)c1ccc2c(n1)N=C(c1ccccc1)c1ccccc1S2 | 98%
40 | CCCC1=Nc2cc(C(=O)NCc3ccccc3Cl)ccc2Sc2ccccc21 [drawing 791] | 105%
41 | CCCC1=Nc2cc(C(=O)NC(C)C34CC5CC(CC(C5)C3)C4)ccc2Sc2ccccc21 (stereo not shown) | 112%
42 | O=C(NN1CCOCC1)c1ccc2c(c1)N=C(c1cccc(F)c1)c1ccccc1S2 | 63%
43 | CCCC1=Nc2cc(C(=O)NCCN3CCCC3)ccc2Sc2ccccc21 | 138%
44 | CCCC1=Nc2cc(C(=O)NCCN(CC)CC)ccc2Sc2ccccc21 | 131%
45 | O=C(c1ccc2c(c1)N=C(c1ccc(F)cc1)c1ccccc1S2)N1CCCCC1 [drawing 1163] | 90%

Results, then the compound that gave them:

Row | Emax | SMILES
46 | 72% | O=C(NCc1cccnc1)c1ccc2c(c1)N=C(c1ccccc1Cl)c1ccccc1S2
47 | 91% | O=C(NCc1ccccc1Cl)c1ccc2c(c1)N=C(C1CCCCC1)c1ccccc1S2 [drawing 1059]
48 | 74% | Cc1cccc(C2=Nc3cc(C(=O)NC4CCC(F)(F)CC4)ccc3Sc3ccccc32)n1 [drawing 869]
49 | 100% | O=C(NCCC(F)(F)F)c1ccc2c(c1)N=C(c1ccc(Cl)cc1F)c1ccccc1S2 [drawing 667]
50 | 83% | Cc1cc(Cl)ccc1C1=Nc2cc(C(=O)NC3CCCCC3)ccc2Sc2ccccc21
51 | 82% | O=C(NCCc1ccncc1)c1ccc2c(c1)N=C(c1ccccc1Cl)c1ccccc1S2
52 | 91% | COc1ccccc1C1=Nc2cc(C(=O)NCC(C)C)ccc2Sc2ccccc21
53 | 77% | COc1ccc(C2=Nc3cc(C(=O)NNC(=O)Cc4ccccc4)ccc3Sc3ccccc32)cc1
54 | 113% | CC(C)CNC(=O)c1ccc2c(c1)N=C(c1ccc(F)cn1)c1ccccc1S2 [drawing 711]
55 | 102% | Cc1csc(CNC(=O)c2ccc3c(c2)N=C(c2sccc2C)c2ccccc2S3)c1 [drawing 661]
56 | 103% | O=C(NCCc1ccccn1)c1ccc2c(c1)N=C(c1cccc(Cl)c1)c1ccccc1S2 [drawing 905]
57 | 94% | Cc1ccc(CNC(=O)c2ccc3c(c2)N=C(c2ccsc2)c2ccccc2S3)o1 [drawing 803]
58 | 81% | O=C(NCc1ccncc1)c1ccc2c(c1)N=C(N1CCCCC1)c1ccccc1S2
59 | 103% | O=C(NCCCC(F)(F)F)c1ccc2c(c1)N=C(c1ccc(Cl)s1)c1ccccc1S2 [drawing 559]
60 | 112% | CC(C)CNC(=O)c1ccc2c(c1)N=C(c1cccc(F)c1)c1ccccc1S2 [drawing 629]
61 | 108% | O=C(NCCc1cccc(Cl)c1)c1ccc2c(c1)N=C(N1CCCCC1)c1ccccc1S2 [drawing 973]
62 | 96% | CC(C)CNC(=O)c1ccc2c(c1)N=C(c1ccccn1)c1ccccc1S2 [drawing 1021]
63 | 85% | O=C(NCc1ccccn1)c1ccc2c(c1)N=C(c1cccc(Br)c1)c1ccccc1S2 [drawing 891]
64 | 91% | O=C(NC1CCC(F)(F)CC1)c1ccc2c(c1)N=C(c1ccc(F)cc1)c1ccccc1S2 [drawing 821]

Same assay, conditions: pIC50, Appendix A; R-SAT CB1; receptor form (mutant or wild-type) not stated

Row | SMILES | IC50
65 | O=C(NCCc1ccc(Cl)cc1)c1ccc2c(c1)N=C(c1ccccc1F)c1ccccc1S2 [drawing 1085] | 31.6 nM
66 | CCCCNC(=O)c1cc2c(cc1C)Sc1ccccc1C(c1ccc(Cl)cc1)=N2 [drawing 630] | 63.1 nM
67 | O=C(c1ccc2c(c1)N=C(c1ccc(Cl)cc1)c1ccccc1S2)N1CCCCC1 | 31.6 nM
68 | O=C(NCc1cccc(Cl)c1)c1ccc2c(c1)N=C(N1CCCCC1)c1ccccc1S2(=O)=O [drawing 939] | 20 nM
69 | O=C(c1ccc2c(c1)N=C(c1ccc(F)cc1)c1ccccc1S2)N1CCCCC1 [drawing 1163] | 39.8 nM

Same assay, conditions: read-out: % Inhibition, Appendix A; R-SAT CB1; receptor form not stated; relative to SR141716 (100%)

Row | SMILES | Emax
70 | CC(C)CNC(=O)c1ccc2c(c1)N=C(c1cccc(Cl)c1)c1ccccc1S2 [drawing 609] | 116%

From patent US20080090805A1, “CB-1 MODULATING COMPOUNDS AND THEIR USE” (ACADIA PHARMACEUTICALS INC., priority 2005, published 2008)
